From PMC10327353 (Breast Cancer Research : BCR, 2023)

Assays:
[1] = test system: CYP P450s; experiment: CYP P450 inhibition and induction; type: in vitro ADME; details: in vitro
[2] = test system: A431 cells; experiment: Cell proliferation assay (CellTiter-Glo), A431; type: cell-based; details: Homo sapiens, A-431; A431, 72 hrs
Experimental: BT474C1-Luci Mono1 cells were seeded in 384-well plates at 1500 cells/well in DMEM medium containing 10% FBS and 1 mM Oxaloacetic acid (OAA). A431 cells were seeded in 384-well plates at 1,000 cells/well in DMEM medium containing 10% FBS. After overnight incubation, cells were treated with compounds at various concentrations for 3 days. Then cell viability was measured using a CellTiter-Glo Luminescent Cell Viability Assay from Promega Corp. according to the manufacturer's instructions.

[3] = DMPK modeling prediction of human half-life
[4] = test system: BT474C1-Luci Mono1 BM xenograft; experiment: BM (brain metastasis) BT474C1-Luci Mono1 xenograft model; type: in vivo, nude mice
Experimental: The BM model was established by intracerebral (ICB) injection of 4 µl of cell suspension containing 3 × 10^5 cells into each mouse following similar procedures published (30). In brieft, 17β- ESTRADIOL (90-day release 0.36 mg/pellet) were injected subcutaneously 24 hrs before cell inoculation. Under anesthesia, a sagittal incision (approximately 1 cm long) was made over the parieto-occipital bone using a sterile scalpel. Then a hole was punctured on the skull at 2.5 mm to the right of the bregma and 1 mm anterior to the coronal suture using a sterile 25-gauge sharp drill. […] The bioluminescent signals of the implanted cells were measured by the Xenogen IVIS spectrum imaging system (PerkinElmer, USA) to monitor tumor growth. […]
In both BM and LM models, the day of randomization was defined as Day 0 and the treatment was started one day after randomization. The bioluminescence signals and body weight of the mice were measured once weekly. Relative bioluminescence intensity on a specific day was calculated by dividing the bioluminescence intensity on that day by the bioluminescence intensity on Day 0. The tumour growth inhibition (TGI) was calculated by formula: TGI (%) = (1-(relative bioluminescence intensity of treated group)/(relative bioluminescence intensity of control group)) x 100.Establishment of SC model

COc1cc(O[C@H]2CCN(C)CC2(F)F)c2c(Nc3ccc(Oc4ccn5ncnc5c4)c(C)c3)ncnc2c1 [DZD1516]
CYP P450s inhibitor and inducer [1]: not a CYP P450s inhibitor and inducer | GI50 [2]: 8.87 µM | predicted human half-life [3]: about 8 h | TGI ([4]; 100 mg/kg twice daily): 48% | TGI ([4]; 150 mg/kg twice daily): 79%
